# Assays:
# MCF7 [1] = test: Promotion of cell proliferation in human MCF7 cells; type: functional, cell-based
# Estrogen receptor = biological target: T1, Estrogen receptor (Homo sapiens, UniProt P03372); test: Agonist activity at human ERalpha expressed in african green monkey CV1 cells by luciferase reporter gene assay relative to 17beta estradiol; type: functional, cell-based, CV-1
# T1 sequence (P03372 whole entry): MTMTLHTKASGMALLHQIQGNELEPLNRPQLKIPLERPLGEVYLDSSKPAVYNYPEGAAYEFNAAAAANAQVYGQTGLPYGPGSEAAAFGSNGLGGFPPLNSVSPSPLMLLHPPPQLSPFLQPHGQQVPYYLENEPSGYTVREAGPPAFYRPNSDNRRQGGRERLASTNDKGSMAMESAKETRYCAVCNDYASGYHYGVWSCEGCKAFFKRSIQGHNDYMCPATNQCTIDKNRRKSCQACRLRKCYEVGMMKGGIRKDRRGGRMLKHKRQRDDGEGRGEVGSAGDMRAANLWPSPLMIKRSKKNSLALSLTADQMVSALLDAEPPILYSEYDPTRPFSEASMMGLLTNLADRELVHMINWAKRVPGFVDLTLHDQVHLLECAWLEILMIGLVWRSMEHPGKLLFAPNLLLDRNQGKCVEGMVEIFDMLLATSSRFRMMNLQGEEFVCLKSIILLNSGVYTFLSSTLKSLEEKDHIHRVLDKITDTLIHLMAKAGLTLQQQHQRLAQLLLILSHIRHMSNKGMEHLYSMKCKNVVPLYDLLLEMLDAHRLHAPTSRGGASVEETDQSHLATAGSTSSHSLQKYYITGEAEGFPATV
# MCF7 [2] = test: Antiproliferative effect against human MCF7 cells after 72 hrs by MTT assay; type: functional, cell-based; conditions: MCF7, 72 h
# MCF7 [3] = test: Growth inhibition of human MCF7 cells at 20 uM after 72 hrs by MTT assay; type: functional; conditions: MCF7, 72 h, read-out: GI
# HeLa [4] = test: Antiproliferative effect against human HeLa cells after 69 hrs by MTT assay; type: functional, cell-based
# HeLa [5] = test: Growth inhibition of human HeLa cells at 20 uM after 69 hrs by MTT assay; type: functional; conditions: read-out: GI
# HL-60 [6] = test: Growth inhibition of human HL60 cells at 20 uM after 69 hrs; type: functional; conditions: HL-60, 69 h, read-out: GI
# HL-60 [7] = test: Antiproliferative effect against human HL60 cells after 69 hrs; type: functional, cell-based; conditions: HL-60, 69 h
structure (smiles),measurement,setting,value
COc1cc([C@H]2O[C@@H](c3cc(OC)c4c(c3)OCO4)[C@@H](CO)[C@@H]2COC(C)=O)cc2c1OCO2,EC50,MCF7 [1],142 nM
same,EC50,Estrogen receptor,3.1 µM
C=C1C(=O)OCC1C(c1cc(OC)c(OC)c(OC)c1)c1cc(OC)c2c(c1)OCO2 (stereo not given),IC50,MCF7 [2],3.8 µM
same,inhibition of growth at 20 µM,MCF7 [3],91%
same,IC50,HeLa [4],9.1 µM
same,inhibition of growth at 20 µM,HeLa [5],96%
same,inhibition of growth at 20 µM,HL-60 [6],92%
same,IC50,HL-60 [7],1400 nM
COc1cc(OC)c(C2CCC(=O)c3c(OC)cc(OC)c(OC)c32)cc1OC (stereo not given),inhibition of growth at 20 µM,MCF7 [3],37.6%
same,inhibition of growth at 20 µM,HeLa [5],< 5%
same,inhibition of growth at 20 µM,HL-60 [6],< 5%
COc1cc(C(c2cc(OC)c3c(c2)OCO3)[C@@H]2COC(=O)[C@H]2C)cc(O)c1OC (relative stereo),inhibition of growth at 20 µM,MCF7 [3],53.2%
same,inhibition of growth at 20 µM,HeLa [5],10%
same,inhibition of growth at 20 µM,HL-60 [6],92%
same,IC50,HL-60 [7],10800 nM
COc1cc([C@@H]2c3cc4c(cc3[C@@H](O[C@@H]3O[C@@H]5CO[C@@H](C)O[C@H]5[C@H](O)[C@H]3O)[C@H]3COC(=O)[C@H]23)OCO4)cc(OC)c1O [ETOPOSIDE],IC50,MCF7 [2],0.19 µM
same,inhibition of growth at 20 µM,MCF7 [3],73.5%
same,IC50,HeLa [4],3.6 µM
same,inhibition of growth at 20 µM,HeLa [5],85.3%
same,inhibition of growth at 20 µM,HL-60 [6],93.5%
same,IC50,HL-60 [7],210 nM
COc1cc(C(c2cc(OC)c3c(c2)OCO3)[C@@H]2COC(=O)[C@H]2C)cc2c1OCO2 [PEPEROMIN A],inhibition of growth at 20 µM,MCF7 [3],27.7%
same,inhibition of growth at 20 µM,HeLa [5],< 5%
same,inhibition of growth at 20 µM,HL-60 [6],17%
C=C1C(=O)OC[C@H]1C(c1cc(OC)c2c(c1)OCO2)c1cc(OC)c2c(c1)OCO2 [PEPEROMIN E],IC50,MCF7 [2],3.9 µM
same,inhibition of growth at 20 µM,MCF7 [3],90.7%
same,IC50,HeLa [4],11.1 µM
same,inhibition of growth at 20 µM,HeLa [5],95%
same,inhibition of growth at 20 µM,HL-60 [6],93%
same,IC50,HL-60 [7],1800 nM

# From ChEMBL document CHEMBL1157251, “Bioactive compounds from Peperomia pellucida” (J Nat Prod, 2006)
